According to patent publication US20110150836A1, “METHODS OF TREATING HBV AND HCV INFECTION” (Gilead Sciences, Inc., priority 2009, published 2011):

Tested on: cytokines and interferon-inducible genes
Assay: mRNA expression of cytokines and interferon-inducible genes in whole blood of healthy woodchucks (real time PCR)
Format: in vivo
Conditions: for IDO mRNA expression in peripheral blood, Mean / IDO mRNA expression, Fold-change from T0 / IFN-a mRNA expression in peripheral blood, Mean / IFN-a mRNA expression, Fold-change from T0 / IFN-γ mRNA expression in peripheral blood, Mean / IFN-γ mRNA expression, Fold-change from T0 / IL-2 mRNA expression in peripheral blood, Mean / IL-2 mRNA expression, Fold-change from T0 / IL-6 mRNA expression in peripheral blood, Mean / IL-6 mRNA expression, Fold-change from T0 / IL-10 mRNA expression in peripheral blood, Mean / IL-10 mRNA expression, Fold-change from T0 / IL-12 mRNA expression in peripheral blood, Mean / IL-12 mRNA expression, Fold-change from T0 / MxA mRNA expression in peripheral blood, Mean / MxA mRNA expression, Fold-change from T0 / TNF-a mRNA expression in peripheral blood, Mean / TNF-a mRNA expression, Fold-change from T0 / 2′5′-OAS mRNA expression in peripheral blood, Mean / 2′5′-OAS mRNA expression, Fold-change from T0: oral 0.5 mg/kg
Procedure: Compound A was administered orally to adult, WHV-negative woodchucks at two different doses. Three male woodchucks received Compound A at 0.05 mg/kg and three other male woodchucks at 0.5 mg/kg. Whole blood samples (4 mls) were collected from each woodchuck prior to dosing at T0, and then at 4, 8, 12, and 24 hours post-dose using EDTA-containing collection tubes.
The induction of an immune response in woodchucks following administration of Compound A was determined by measuring the mRNA expression of cytokines and interferon-inducible genes in whole blood samples collected at different time points. Total RNA was isolated using the QIAamp RNA Blood Mini Kit (Qiagen) according to the manufacturer's specifications. RNA was eluted into 40 μl nuclease-free water and stored at −70° C. The concentration of RNA was determined spectrophotometrically at OD 260 nm. Two μg of RNA were treated with DNase I (Invitrogen) and reverse transcribed to cDNA with MultiScribe Reverse Transcriptase (Applied Biosystems) using random hexamers. Triplicates of 2 μl cDNA were amplified by real time PCR on an ABI PRISM 7000 Sequence Detection instrument (Applied Biosystems) using SYBR GREEN Master Mix (Applied Biosystems) and woodchuck-specific primers. Amplified target genes included IFN-α, IFN-γ, TNF-α, IL-2, IL-6, IL-10 IL-12, 2′5′-OAS, IDO, and MxA. Woodchuck β-actin mRNA expression was used to normalize target gene expression. Transcription levels of woodchuck cytokines and interferon-inducible genes were represented by the formula 2ΔCt, where ΔCt indicates the difference in the threshold cycle between β-actin and target gene expression. Results were further represented as a fold-change from the transcription level at T0.

Structure (SMILES): CCCCOc1nc(N)c2nc(O)n(Cc3cccc(CN4CCCC4)c3)c2n1 [Compound A, 6-amino-2-butoxy-9-(3-(pyrrolidin-1-ylmethyl)benzyl)-9H-purin-8-ol]
- IDO mRNA expression in peripheral blood, Mean (4 hrs): 22.67
- IDO mRNA expression, Fold-change from T0 (4 hrs): 9.1 fold
- IFN-a mRNA expression in peripheral blood, Mean (4 hrs): 19.14
- IFN-a mRNA expression, Fold-change from T0 (4 hrs): 3.9 fold
- IFN-γ mRNA expression in peripheral blood, Mean (4 hrs): 2.80
- IFN-γ mRNA expression, Fold-change from T0 (4 hrs): 2.6 fold
- IL-2 mRNA expression in peripheral blood, Mean (4 hrs): 4.32
- IL-2 mRNA expression, Fold-change from T0 (4 hrs): 2.2 fold
- IL-6 mRNA expression in peripheral blood, Mean (4 hrs): 21.84
- IL-6 mRNA expression, Fold-change from T0 (4 hrs): 4.6 fold
- IL-10 mRNA expression in peripheral blood, Mean (4 hrs): 4.01
- IL-10 mRNA expression, Fold-change from T0 (4 hrs): 1.5 fold
- IL-12 mRNA expression in peripheral blood, Mean (4 hrs): 5.74
- IL-12 mRNA expression, Fold-change from T0 (4 hrs): 3.8 fold
- MxA mRNA expression in peripheral blood, Mean (4 hrs): 5.96
- MxA mRNA expression, Fold-change from T0 (4 hrs): 3.6 fold
- TNF-a mRNA expression in peripheral blood, Mean (4 hrs): 43.18
- TNF-a mRNA expression, Fold-change from T0 (4 hrs): 6.2 fold
- 2′5′-OAS mRNA expression in peripheral blood, Mean (8 hrs): 41.13
- 2′5′-OAS mRNA expression, Fold-change from T0 (8 hrs): 8.3 fold
- IDO mRNA expression in peripheral blood, Mean (8 hrs): 30.62
- IDO mRNA expression, Fold-change from T0 (8 hrs): 11.6 fold
- IFN-a mRNA expression in peripheral blood, Mean (8 hrs): 48.85
- IFN-a mRNA expression, Fold-change from T0 (8 hrs): 10.4 fold
- IFN-γ mRNA expression in peripheral blood, Mean (8 hrs): 7.81
- IFN-γ mRNA expression, Fold-change from T0 (8 hrs): 6.7 fold
- IL-2 mRNA expression in peripheral blood, Mean (8 hrs): 3.12
- IL-2 mRNA expression, Fold-change from T0 (8 hrs): 2.0 fold
- IL-6 mRNA expression in peripheral blood, Mean (8 hrs): 18.57
- IL-6 mRNA expression, Fold-change from T0 (8 hrs): 4.6 fold
- IL-10 mRNA expression in peripheral blood, Mean (8 hrs): 17.31
- IL-10 mRNA expression, Fold-change from T0 (8 hrs): 6.6 fold
- IL-12 mRNA expression in peripheral blood, Mean (8 hrs): 6.86
- IL-12 mRNA expression, Fold-change from T0 (8 hrs): 4.2 fold
- MxA mRNA expression in peripheral blood, Mean (8 hrs): 12.86
- MxA mRNA expression, Fold-change from T0 (8 hrs): 7.9 fold
- TNF-a mRNA expression in peripheral blood, Mean (8 hrs): 31.19
- TNF-a mRNA expression, Fold-change from T0 (8 hrs): 4.5 fold
- 2′5′-OAS mRNA expression in peripheral blood, Mean (12 hrs): 884.87
- 2′5′-OAS mRNA expression, Fold-change from T0 (12 hrs): 185.6 fold
- IDO mRNA expression in peripheral blood, Mean (12 hrs): 89.01
- IDO mRNA expression, Fold-change from T0 (12 hrs): 37.0 fold
- IFN-a mRNA expression in peripheral blood, Mean (12 hrs): 7.12
- IFN-a mRNA expression, Fold-change from T0 (12 hrs): 1.5 fold
- IFN-γ mRNA expression in peripheral blood, Mean (12 hrs): 4.36
- IFN-γ mRNA expression, Fold-change from T0 (12 hrs): 3.8 fold
- IL-6 mRNA expression in peripheral blood, Mean (12 hrs): 6.25
- IL-6 mRNA expression, Fold-change from T0 (12 hrs): 1.4 fold
- IL-10 mRNA expression in peripheral blood, Mean (12 hrs): 14.92
- IL-10 mRNA expression, Fold-change from T0 (12 hrs): 5.6 fold
- IL-12 mRNA expression in peripheral blood, Mean (12 hrs): 49.93
- IL-12 mRNA expression, Fold-change from T0 (12 hrs): 30.1 fold
- MxA mRNA expression in peripheral blood, Mean (12 hrs): 71.77
- MxA mRNA expression, Fold-change from T0 (12 hrs): 45.3 fold
- TNF-a mRNA expression in peripheral blood, Mean (12 hrs): 62.30
- TNF-a mRNA expression, Fold-change from T0 (12 hrs): 9.0 fold
- 2′5′-OAS mRNA expression in peripheral blood, Mean (24 hrs): 64.27
- 2′5′-OAS mRNA expression, Fold-change from T0 (24 hrs): 14.4 fold
- IDO mRNA expression in peripheral blood, Mean (24 hrs): 1217.20
- IDO mRNA expression, Fold-change from T0 (24 hrs): 454.2 fold
- IFN-a mRNA expression in peripheral blood, Mean (24 hrs): 4.15
- IFN-a mRNA expression, Fold-change from T0 (24 hrs): 0.9 fold
- IFN-γ mRNA expression in peripheral blood, Mean (24 hrs): 2.16
- IFN-γ mRNA expression, Fold-change from T0 (24 hrs): 1.9 fold
- IL-2 mRNA expression in peripheral blood, Mean (24 hrs): 13.38
- IL-2 mRNA expression, Fold-change from T0 (24 hrs): 5.9 fold
- IL-6 mRNA expression in peripheral blood, Mean (24 hrs): 4.75
- IL-6 mRNA expression, Fold-change from T0 (24 hrs): 1.2 fold
- IL-10 mRNA expression in peripheral blood, Mean (24 hrs): 8.74
- IL-10 mRNA expression, Fold-change from T0 (24 hrs): 3.3 fold
- IL-12 mRNA expression in peripheral blood, Mean (24 hrs): 11.55
- IL-12 mRNA expression, Fold-change from T0 (24 hrs): 7.0 fold
- MxA mRNA expression in peripheral blood, Mean (24 hrs): 758.52
- MxA mRNA expression, Fold-change from T0 (24 hrs): 518.8 fold
- TNF-a mRNA expression in peripheral blood, Mean (24 hrs): 30.71
- TNF-a mRNA expression, Fold-change from T0 (24 hrs): 4.5 fold
- mRNA expression of IFN-α, IFN-γ, TNF-alpha, IL-2, IL-6, IL-10, IL-12, 2′5′-OAS, IDO and MxA (oral 0.05 and 0.5 mg/kg): induced dose-dependent increases in the mRNA expression
- time of maximal mRNA expression of IFN-α, IFN-γ, IL-6, and IL-10 (oral dosing): 8 hours post-dose
- time of maximal mRNA expression of IL-2, IDO, and MxA (oral dosing): 24 hours post-dose
- time of maximal mRNA expression of TNF-α, IL-12, and 2′5′-OAS (oral dosing): 12 hours post-dose
